Experimental data from patent publication US9023985B2, “Glucagon composition” (Arecor Ltd., priority 2010, dated 2015).

Columns and labels:
[1] = Visual assessment of glucagon formulations with different tonicity modifiers, 50° C. incubation; conditions: glucagon 1 mg/ml, 5 mM acetate, 0.075% benzethonium chloride, pH 5.5
Experimental: In some cases, the composition contained a specified concentration of an antioxidant. The effect of the nature and the concentration of the tonicity modifier on the physical stability (i.e., gel formation and/or aggregation) was determined by visual assessment following storage.
In the first experiment, the effects of mannitol and 1,2-propanediol as tonicity modifiers modifiers were compared at 50° C.
In another experiment, the effects of mannitol and glycerol as tonicity modifiers were compared at 50° C.
In another experiment, the effects of mannitol and trehalose as tonicity modifiers were compared at 50° C.

[2] = Stability of glucagon in surfactant solutions at room temperature (RP-HPLC, gel formation); assay type: physicochemical; conditions: for Changes in the native form of glucagon (RP-HPLC) / Size of the native glucagon peak (RP-HPLC): glucagon dissolved with the surfactant, incubation at room temperature for days
From the text: […]. In contrast, the size of the native peak diminished in the case of CHAPS to <10%) and in the case of TWEEN® 20 (to about 60%).
Formulating at pH>8 minimized the gel formation.

[3] = Visual assessment of glucagon formulations with and without phenol, 50° C. incubation; assay type: physicochemical; conditions: glucagon 1 mg/ml
Experimental: The pH of both formulations was adjusted to 5.5. […] The appearance of all formulations was noted shortly after preparation and then following storage at 50° C. for specified periods of time.

[4] = 0 days, 1.3 mM butylated hydroxytoluene
[5] = 6 weeks, 1.3 mM butylated hydroxytoluene
[6] = 6 days, 1.3 mM butylated hydroxytoluene
[7] = 50° C. for up to 6 weeks, 5 mM methionine

## CC(O)CO (stereo not drawn) [1,2-propanediol]
[1]; 50° C.
  Onset of aggregation and gel formation compared with mannitol: much earlier onset of aggregation and gel formation

## CC(C)(C)CC(C)(C)c1ccc(OCCOCC[N+](C)(C)Cc2ccccc2)cc1 [Benzethonium chloride]
[2]
  Changes in the native form of glucagon (RP-HPLC): no significant changes

## C[C@H](CCC(=O)NCCC[N+](C)(C)CCCS(=O)(=O)[O-])[C@H]1CC[C@H]2[C@@H]3[C@H](O)C[C@@H]4C[C@H](O)CC[C@]4(C)[C@H]3C[C@H](O)[C@]12C [CHAPS]
[2]
  Size of the native glucagon peak (RP-HPLC): < 10%

## CCCCCCCCCCCCCCCC[N+](C)(C)C.[Br-] [Cetrimide, cetyl trimethylammonium bromide]
[2]
  Changes in the native form of glucagon (RP-HPLC): no significant changes

## OCC(O)CO [Glycerol (250 mM), Glycerol]
[1]; [4]
  Visual assessment (50° C. incubation), extent of visible precipitation: 1
[1]; [5]
  Visual assessment (50° C. incubation), extent of visible precipitation: 2
[1]; 50° C. for 6 weeks, 1.3 mM butylated hydroxytoluene
  Visual appearance after incubation: signs of precipitation
[1]; [6]
  Visual assessment (50° C. incubation), extent of visible precipitation: 1

## OC[C@@H](O)[C@@H](O)[C@H](O)[C@H](O)CO [Mannitol (250 mM), Mannitol]
[1]; [4]
  Visual assessment (50° C. incubation), extent of visible precipitation: 1
[1]; [5]
  Visual assessment (50° C. incubation), extent of visible precipitation: 1
[1]; [7]
  Visual appearance after incubation: remained as a clear liquid
[1]; [6]
  Visual assessment (50° C. incubation), extent of visible precipitation: 1

## Oc1ccccc1 [phenol]
[3]
  Gel formation and/or aggregation on incubation: delay aggregation and gel formation considerably farther

## OC[C@H]1O[C@H](O[C@H]2O[C@H](CO)[C@@H](O)[C@H](O)[C@H]2O)[C@H](O)[C@@H](O)[C@@H]1O [trehalose (250 and 500 mM), trehalose]
[1]; [7]
  Visual appearance after incubation: remained as a clear liquid

## Benzalkonium chloride
[2]
  Changes in the native form of glucagon (RP-HPLC): no significant changes

## Sodium deoxycholate
[2]
  Changes in the native form of glucagon (RP-HPLC): no significant changes
[2]; prepared at pH 7.5, incubation at room temperature
  Gel formation of dissolved glucagon: tendency to form gels

## TWEEN ® 20
[2]
  Size of the native glucagon peak (RP-HPLC): about 60%
